According to the kinase profiling compilation of Christmann-Franck et al. (2016):

Key:
Assay in all cases: radiometric filter-binding kinase assay, Kinase HotSpot
Details in all cases: compound 0.5 µM; ATP 10 µM
ABL2 (human) = ABL2 (human) (UniProt P42684)
AKT1 (human) = AKT1 (human) (UniProt P31749)
AURKA (human) = AURKA (human) (UniProt O14965)
BRSK2 (human) = BRSK2 (human) (UniProt Q8IWQ3)
CAMKK1 (human) = CAMKK1 (human) (UniProt Q8N5S9)
CAMKK2 (human) = CAMKK2 (human) (UniProt Q96RR4)
CDC42BPA (human) = CDC42BPA (human) (UniProt Q5VT25)
CDK2 CCNA2 (human) = CDK2 CCNA2 (human) (UniProt P24941+P20248)
CDK4 CCND1 (human) = CDK4 CCND1 (human) (UniProt P24385+P11802)
CDK4 CCND3 (human) = CDK4 CCND3 (human) (UniProt P30281+P11802)
DDR2 (human) = DDR2 (human) (UniProt Q16832)
IKBKB (human) = IKBKB (human) (UniProt O14920)
IKBKE (human) = IKBKE (human) (UniProt Q14164)
MAP2K1 (human) = MAP2K1 (human) (UniProt Q02750)
MAP3K2 (human) = MAP3K2 (human) (UniProt Q9Y2U5)
MAP3K7 TAB1 (human) = MAP3K7 TAB1 (human) (UniProt O43318+Q15750)
MAPKAPK2 (human) = MAPKAPK2 (human) (UniProt P49137)
MARK1 (human) = MARK1 (human) (UniProt Q9P0L2)
MARK2 (human) = MARK2 (human) (UniProt Q7KZI7)
MATK (human) = MATK (human) (UniProt P42679)
MELK (human) = MELK (human) (UniProt Q14680)
MKNK2 (human) = MKNK2 (human) (UniProt Q9HBH9)
MKNK2 (human), sequence (Q9HBH9 whole entry, looked up): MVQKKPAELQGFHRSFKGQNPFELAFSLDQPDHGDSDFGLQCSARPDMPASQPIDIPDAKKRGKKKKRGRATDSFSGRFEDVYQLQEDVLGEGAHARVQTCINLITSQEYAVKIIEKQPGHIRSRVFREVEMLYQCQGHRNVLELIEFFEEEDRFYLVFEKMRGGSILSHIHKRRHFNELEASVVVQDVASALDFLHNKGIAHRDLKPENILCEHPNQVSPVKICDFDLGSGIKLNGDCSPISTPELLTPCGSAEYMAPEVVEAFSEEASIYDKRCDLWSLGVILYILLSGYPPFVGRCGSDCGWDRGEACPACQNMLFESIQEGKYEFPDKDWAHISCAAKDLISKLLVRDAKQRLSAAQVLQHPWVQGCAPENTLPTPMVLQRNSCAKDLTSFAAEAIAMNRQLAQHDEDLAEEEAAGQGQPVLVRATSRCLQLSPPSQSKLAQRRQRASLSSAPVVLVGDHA

NEK2 (human) = NEK2 (human) (UniProt P51955)
NTRK3 (human) = NTRK3 (human) (UniProt Q16288)
PAK2 (human) = PAK2 (human) (UniProt Q13177)
PAK4 (human) = PAK4 (human) (UniProt O96013)
PAK7 (human) = PAK7 (human) (UniProt Q9P286)
PHKG2 (human) = PHKG2 (human) (UniProt P15735)
PRKCE (human) = PRKCE (human) (UniProt Q02156)
PRKCH (human) = PRKCH (human) (UniProt P24723)
PRKD2 (human) = PRKD2 (human) (UniProt Q9BZL6)
PRKD2 (human), sequence (Q9BZL6 whole entry, looked up): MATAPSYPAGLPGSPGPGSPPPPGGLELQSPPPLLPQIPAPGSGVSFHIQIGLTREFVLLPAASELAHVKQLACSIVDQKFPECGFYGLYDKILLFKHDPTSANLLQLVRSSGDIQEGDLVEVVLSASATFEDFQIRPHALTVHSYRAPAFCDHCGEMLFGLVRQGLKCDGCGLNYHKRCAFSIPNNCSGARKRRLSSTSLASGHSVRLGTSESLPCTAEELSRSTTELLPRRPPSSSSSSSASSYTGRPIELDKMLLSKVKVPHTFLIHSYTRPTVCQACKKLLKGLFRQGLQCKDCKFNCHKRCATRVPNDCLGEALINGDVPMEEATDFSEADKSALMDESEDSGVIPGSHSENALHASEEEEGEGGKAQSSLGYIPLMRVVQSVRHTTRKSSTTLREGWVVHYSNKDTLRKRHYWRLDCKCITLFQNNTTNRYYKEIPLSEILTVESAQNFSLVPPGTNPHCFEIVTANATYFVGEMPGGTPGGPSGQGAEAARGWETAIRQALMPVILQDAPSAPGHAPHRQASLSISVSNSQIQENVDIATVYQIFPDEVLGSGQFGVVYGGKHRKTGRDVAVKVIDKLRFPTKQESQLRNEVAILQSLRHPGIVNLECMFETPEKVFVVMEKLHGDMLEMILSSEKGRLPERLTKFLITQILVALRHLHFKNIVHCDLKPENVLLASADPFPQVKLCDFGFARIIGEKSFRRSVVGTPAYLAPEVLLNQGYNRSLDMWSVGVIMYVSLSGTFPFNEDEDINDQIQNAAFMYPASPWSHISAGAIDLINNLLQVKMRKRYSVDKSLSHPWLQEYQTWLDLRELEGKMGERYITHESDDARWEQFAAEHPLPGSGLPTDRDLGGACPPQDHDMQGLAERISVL

ROCK1 (human) = ROCK1 (human) (UniProt Q13464)
RPS6KA1 KD1 KD2 (human) = RPS6KA1 KD1 KD2 (human) (UniProt Q15418)
RPS6KA1 KD1 KD2 (human), sequence (Q15418 whole entry, looked up): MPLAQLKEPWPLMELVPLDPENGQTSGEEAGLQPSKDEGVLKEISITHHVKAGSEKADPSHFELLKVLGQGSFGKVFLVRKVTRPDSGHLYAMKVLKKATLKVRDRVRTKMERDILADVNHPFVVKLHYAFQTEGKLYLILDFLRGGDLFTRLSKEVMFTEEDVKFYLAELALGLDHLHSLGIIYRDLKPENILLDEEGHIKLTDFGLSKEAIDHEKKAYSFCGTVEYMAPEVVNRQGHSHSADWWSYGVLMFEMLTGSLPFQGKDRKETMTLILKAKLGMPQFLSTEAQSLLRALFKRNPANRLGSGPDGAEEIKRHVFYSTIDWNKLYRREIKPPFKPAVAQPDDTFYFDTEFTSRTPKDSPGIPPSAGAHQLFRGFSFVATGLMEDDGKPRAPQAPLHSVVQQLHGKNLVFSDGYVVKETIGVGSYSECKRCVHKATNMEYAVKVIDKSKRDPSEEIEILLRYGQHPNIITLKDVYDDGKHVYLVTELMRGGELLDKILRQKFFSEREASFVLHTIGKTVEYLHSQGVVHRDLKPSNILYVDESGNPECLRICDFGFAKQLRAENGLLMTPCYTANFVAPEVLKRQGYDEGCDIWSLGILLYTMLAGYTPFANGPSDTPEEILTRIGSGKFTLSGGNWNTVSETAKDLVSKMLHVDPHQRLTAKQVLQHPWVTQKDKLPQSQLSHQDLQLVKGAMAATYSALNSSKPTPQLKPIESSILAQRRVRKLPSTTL

RPS6KB1 (human) = RPS6KB1 (human) (UniProt P23443)
SIK2 (human) = SIK2 (human) (UniProt Q9H0K1)
STK17A (human) = STK17A (human) (UniProt Q9UEE5)
STK3 (human) = STK3 (human) (UniProt Q13188)
STK3 (human), sequence (Q13188 whole entry, looked up): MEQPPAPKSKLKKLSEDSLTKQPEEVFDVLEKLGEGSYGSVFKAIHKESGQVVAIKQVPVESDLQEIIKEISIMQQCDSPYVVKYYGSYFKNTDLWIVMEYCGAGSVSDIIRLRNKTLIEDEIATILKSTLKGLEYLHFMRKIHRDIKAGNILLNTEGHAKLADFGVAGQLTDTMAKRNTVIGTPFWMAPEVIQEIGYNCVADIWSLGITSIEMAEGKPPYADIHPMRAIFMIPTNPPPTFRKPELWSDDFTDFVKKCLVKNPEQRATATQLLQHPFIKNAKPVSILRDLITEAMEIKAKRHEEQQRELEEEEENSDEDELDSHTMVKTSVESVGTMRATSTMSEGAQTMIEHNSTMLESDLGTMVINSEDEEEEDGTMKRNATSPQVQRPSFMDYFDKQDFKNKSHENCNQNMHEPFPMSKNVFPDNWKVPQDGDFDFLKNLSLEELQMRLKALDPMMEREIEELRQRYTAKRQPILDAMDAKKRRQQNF

[1] = biological target: TYK2 JH1 catalytic (human) (UniProt P29597)
VRK1 (human) = VRK1 (human) (UniProt Q99986)
VRK1 (human), sequence (Q99986 whole entry, looked up): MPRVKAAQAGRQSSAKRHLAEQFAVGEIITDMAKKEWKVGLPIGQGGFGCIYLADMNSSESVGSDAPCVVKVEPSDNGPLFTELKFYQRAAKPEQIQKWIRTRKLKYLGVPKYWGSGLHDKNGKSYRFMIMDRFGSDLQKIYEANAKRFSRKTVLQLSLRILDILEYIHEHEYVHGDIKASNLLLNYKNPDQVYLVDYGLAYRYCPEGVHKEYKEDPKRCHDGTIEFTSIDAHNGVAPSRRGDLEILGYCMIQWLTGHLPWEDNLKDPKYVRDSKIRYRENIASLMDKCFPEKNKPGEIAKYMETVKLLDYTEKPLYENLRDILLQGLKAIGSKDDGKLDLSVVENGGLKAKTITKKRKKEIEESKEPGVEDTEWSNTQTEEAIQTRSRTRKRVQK

WNK2 (human) = WNK2 (human) (UniProt Q9Y3S1)
YES1 (human) = YES1 (human) (UniProt P07947)
YES1 (human), sequence (P07947 whole entry, looked up): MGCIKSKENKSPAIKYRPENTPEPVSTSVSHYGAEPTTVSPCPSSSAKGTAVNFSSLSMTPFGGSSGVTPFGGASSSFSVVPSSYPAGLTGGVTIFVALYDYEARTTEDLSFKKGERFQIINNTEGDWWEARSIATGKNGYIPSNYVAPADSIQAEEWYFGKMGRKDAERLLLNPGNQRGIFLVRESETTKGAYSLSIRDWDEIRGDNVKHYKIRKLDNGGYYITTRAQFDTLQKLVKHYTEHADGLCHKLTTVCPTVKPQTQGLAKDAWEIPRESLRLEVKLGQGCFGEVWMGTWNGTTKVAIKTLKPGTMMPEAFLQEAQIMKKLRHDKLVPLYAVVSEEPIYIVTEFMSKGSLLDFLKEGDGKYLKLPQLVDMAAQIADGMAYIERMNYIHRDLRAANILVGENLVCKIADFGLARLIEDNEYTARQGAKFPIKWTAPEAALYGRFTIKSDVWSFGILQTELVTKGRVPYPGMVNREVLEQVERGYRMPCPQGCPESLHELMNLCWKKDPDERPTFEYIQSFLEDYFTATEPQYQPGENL

ABL2 (human), sequence (P42684 whole entry, looked up): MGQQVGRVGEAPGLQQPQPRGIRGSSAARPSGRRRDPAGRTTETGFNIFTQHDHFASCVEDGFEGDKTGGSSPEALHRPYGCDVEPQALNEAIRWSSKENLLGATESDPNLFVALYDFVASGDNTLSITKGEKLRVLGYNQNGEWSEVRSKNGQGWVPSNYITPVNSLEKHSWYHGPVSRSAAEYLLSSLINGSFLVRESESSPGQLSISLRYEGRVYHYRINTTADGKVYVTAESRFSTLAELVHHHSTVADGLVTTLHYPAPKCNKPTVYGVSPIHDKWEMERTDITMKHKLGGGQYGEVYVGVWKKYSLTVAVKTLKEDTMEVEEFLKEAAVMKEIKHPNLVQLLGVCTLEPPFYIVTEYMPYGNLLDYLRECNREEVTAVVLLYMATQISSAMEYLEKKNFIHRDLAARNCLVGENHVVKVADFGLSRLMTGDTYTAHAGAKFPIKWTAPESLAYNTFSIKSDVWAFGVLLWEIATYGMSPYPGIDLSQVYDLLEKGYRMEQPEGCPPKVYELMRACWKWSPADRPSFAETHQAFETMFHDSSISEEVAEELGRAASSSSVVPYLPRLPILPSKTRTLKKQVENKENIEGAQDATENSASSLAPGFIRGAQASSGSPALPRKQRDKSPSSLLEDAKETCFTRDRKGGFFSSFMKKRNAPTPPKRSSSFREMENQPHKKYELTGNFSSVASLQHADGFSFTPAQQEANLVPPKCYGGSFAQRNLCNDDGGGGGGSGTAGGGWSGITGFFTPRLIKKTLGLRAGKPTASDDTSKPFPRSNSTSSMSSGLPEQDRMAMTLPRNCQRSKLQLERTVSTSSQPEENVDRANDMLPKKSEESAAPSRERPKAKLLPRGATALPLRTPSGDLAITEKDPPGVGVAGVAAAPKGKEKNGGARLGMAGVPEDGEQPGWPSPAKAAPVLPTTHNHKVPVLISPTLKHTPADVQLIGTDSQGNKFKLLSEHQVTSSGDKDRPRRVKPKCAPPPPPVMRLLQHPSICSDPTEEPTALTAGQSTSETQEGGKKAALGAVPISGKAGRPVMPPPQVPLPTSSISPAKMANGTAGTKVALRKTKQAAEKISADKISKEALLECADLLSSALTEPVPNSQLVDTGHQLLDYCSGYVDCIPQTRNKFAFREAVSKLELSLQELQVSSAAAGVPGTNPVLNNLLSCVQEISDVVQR

O=C(Nc1cccc(Nc2cc(Nc3cccc(C(F)(F)F)c3)ncn2)c1)C1CC1 gave a residual activity (ABL2 (human)) of 100%, a residual activity (AKT1 (human)) of 102% and a residual activity (AURKA (human)) of 107%. The residual activity (BRSK2 (human)) was 95.8%, the residual activity (CAMKK1 (human)) was 116% and the residual activity (CAMKK2 (human)) was 98.5%. It also gave a residual activity (CDC42BPA (human)) of 77.7%, a residual activity (CDK2 CCNA2 (human)) of 99.5% and a residual activity (CDK4 CCND1 (human)) of 103%. The residual activity (CDK4 CCND3 (human)) was 105%, the residual activity (DDR2 (human)) was 106% and the residual activity (IKBKB (human)) was 100%. It also gave a residual activity (IKBKE (human)) of 97.7%, a residual activity (MAP2K1 (human)) of 98.9% and a residual activity (MAP3K2 (human)) of 91.8%. It also gave a residual activity (MAP3K7 TAB1 (human)) of 99.3%, a residual activity (MAPKAPK2 (human)) of 104% and a residual activity (MARK1 (human)) of 102%. The residual activity (MARK2 (human)) was 101%, the residual activity (MATK (human)) was 96.1% and the residual activity (MELK (human)) was 104%. For the same molecule, the residual activity (MKNK2 (human)) was 83.8%, the residual activity (NEK2 (human)) was 99.5% and the residual activity (NTRK3 (human)) was 95.1%. It also gave a residual activity (PAK2 (human)) of 103%, a residual activity (PAK4 (human)) of 103% and a residual activity (PAK7 (human)) of 97.5%. It also gave a residual activity (PHKG2 (human)) of 101%, a residual activity (PRKCE (human)) of 89.2% and a residual activity (PRKCH (human)) of 88.2%. For the same molecule, the residual activity (PRKD2 (human)) was 103%, the residual activity (ROCK1 (human)) was 98.7% and the residual activity (RPS6KA1 KD1 KD2 (human)) was 95.1%. The residual activity (RPS6KB1 (human)) was 98%, the residual activity (SIK2 (human)) was 89.4% and the residual activity (STK17A (human)) was 99.2%. It also gave a residual activity (STK3 (human)) of 102%, a residual activity [1] of 102% and a residual activity (VRK1 (human)) of 94%. For the same molecule, the residual activity (WNK2 (human)) was 109% and the residual activity (YES1 (human)) was 99.6%.
Molecule CC(C)c1nn(-c2c(Cl)cccc2Cl)c2nc(Cc3ccc(OCCO)cc3)nc(O)c12 has a residual activity (ABL2 (human)) of 96.3%, a residual activity (AKT1 (human)) of 94.7% and a residual activity (AURKA (human)) of 107%. It also gave a residual activity (BRSK2 (human)) of 98.3%, a residual activity (CAMKK1 (human)) of 100% and a residual activity (CAMKK2 (human)) of 90.9%. It also gave a residual activity (CDC42BPA (human)) of 89.5%, a residual activity (CDK2 CCNA2 (human)) of 1.96% and a residual activity (CDK4 CCND1 (human)) of 86.8%. The residual activity (CDK4 CCND3 (human)) was 45.6%, the residual activity (DDR2 (human)) was 96.3% and the residual activity (IKBKB (human)) was 103%. The residual activity (IKBKE (human)) was 95.6%, the residual activity (MAP2K1 (human)) was 99.7% and the residual activity (MAP3K2 (human)) was 94.7%. The residual activity (MAP3K7 TAB1 (human)) was 98.5%, the residual activity (MAPKAPK2 (human)) was 95.4% and the residual activity (MARK1 (human)) was 93.3%. The residual activity (MARK2 (human)) was 88%, the residual activity (MATK (human)) was 91.1% and the residual activity (MELK (human)) was 84%. For the same molecule, the residual activity (MKNK2 (human)) was 88.9%, the residual activity (NEK2 (human)) was 97.7% and the residual activity (NTRK3 (human)) was 90.5%. The residual activity (PAK2 (human)) was 95.6%, the residual activity (PAK4 (human)) was 106% and the residual activity (PAK7 (human)) was 76.4%. It also gave a residual activity (PHKG2 (human)) of 102%, a residual activity (PRKCE (human)) of 90.5% and a residual activity (PRKCH (human)) of 87.4%. For the same molecule, the residual activity (PRKD2 (human)) was 88.4%, the residual activity (ROCK1 (human)) was 101% and the residual activity (RPS6KA1 KD1 KD2 (human)) was 91.3%. The residual activity (RPS6KB1 (human)) was 94.8%, the residual activity (SIK2 (human)) was 116% and the residual activity (STK17A (human)) was 98.3%. It also gave a residual activity (STK3 (human)) of 93.5%, a residual activity [1] of 111% and a residual activity (VRK1 (human)) of 103%. For the same molecule, the residual activity (WNK2 (human)) was 95.7% and the residual activity (YES1 (human)) was 86.3%.
For CCN(CC)CCCCN1c2ccccc2Oc2ccc(Cl)cc21, the residual activity (ABL2 (human)) was 101%, the residual activity (AKT1 (human)) was 112% and the residual activity (AURKA (human)) was 93.3%. For the same molecule, the residual activity (BRSK2 (human)) was 107%, the residual activity (CAMKK1 (human)) was 116% and the residual activity (CAMKK2 (human)) was 105%. The residual activity (CDC42BPA (human)) was 111%, the residual activity (CDK2 CCNA2 (human)) was 98.7% and the residual activity (CDK4 CCND1 (human)) was 107%. The residual activity (CDK4 CCND3 (human)) was 102%, the residual activity (DDR2 (human)) was 99.4% and the residual activity (IKBKB (human)) was 96.6%. For the same molecule, the residual activity (IKBKE (human)) was 102%, the residual activity (MAP2K1 (human)) was 98.1% and the residual activity (MAP3K2 (human)) was 88.2%. For the same molecule, the residual activity (MAP3K7 TAB1 (human)) was 102%, the residual activity (MAPKAPK2 (human)) was 97.2% and the residual activity (MARK1 (human)) was 100%. For the same molecule, the residual activity (MARK2 (human)) was 86.1%, the residual activity (MATK (human)) was 99.9% and the residual activity (MELK (human)) was 95.3%. For the same molecule, the residual activity (MKNK2 (human)) was 111%, the residual activity (NEK2 (human)) was 101% and the residual activity (NTRK3 (human)) was 103%. The residual activity (PAK2 (human)) was 98.6%, the residual activity (PAK4 (human)) was 104% and the residual activity (PAK7 (human)) was 116%. The residual activity (PHKG2 (human)) was 110%, the residual activity (PRKCE (human)) was 109% and the residual activity (PRKCH (human)) was 108%. It also gave a residual activity (PRKD2 (human)) of 105%, a residual activity (ROCK1 (human)) of 92.6% and a residual activity (RPS6KA1 KD1 KD2 (human)) of 97.5%. The residual activity (RPS6KB1 (human)) was 97.7%, the residual activity (SIK2 (human)) was 111% and the residual activity (STK17A (human)) was 96.1%. For the same molecule, the residual activity (STK3 (human)) was 106%, the residual activity [1] was 96.7% and the residual activity (VRK1 (human)) was 101%. For the same molecule, the residual activity (WNK2 (human)) was 119% and the residual activity (YES1 (human)) was 88.5%.
